Experimental data published in patent publication US7498304B2, “Angiogenesis-modulating compositions and uses” (Curis, Inc., priority 2002, dated 2009).

How the values were obtained:
[1] = test system: Shh signaling pathway in MEFs homozygous for ptc-lacZ (cell line 23-1); experiment: β-galactosidase activity in ptc-lacZ homozygous mouse embryonic fibroblasts; type: cell-based; settings: normalized to whole protein content
Excerpt: These studies involve the use of mouse embryonic fibroblasts (MEFs) that were generated by trypsin digestion of E8.5 embryos from patched (ptc) ±matings. […] Thus, in these ptc−/− embryos, the Shh signaling pathway is activated in many tissues, and the lacZ gene product β-galactosidase is expressed in all of those tissues as a report of pathway activation.
The Shh signaling pathway can be activated in these fibroblasts in cell culture, and that the level of β-galactosidase activity does reflect the degree of pathway activation. The MEF line 23-4 is heterozygous for ptc-lacZ, and thus contains one functional ptc allele capable of maintaining a repressed state of the pathway, but will express lacZ when the pathway is activated by addition of Shh protein.

[2] = test system: normal human fibroblasts (CCD37); experiment: normal human fibroblasts (CCD37), competitive RT-PCR and VEGF165 ELISA; type: cell-based
Experimental: To determine if hedgehog can directly induce fibroblasts to produce VEGF or other angiogenic factors, we treated normal human fibroblasts (CCD37) with Myr-Shh and the ability of fibroblasts to respond was evaluated by competitive RT-PCR for ptc 1 and several angiogenic growth factors. Total RNA was prepared from cells treated as described above using Trizol (Life Technologies, Rockville, Md.). Four micrograms of total RNA was used to prepare cDNA using the SuperScriptTM preamplification system (Cat. No. 18089-011, Life Technologies, Rockville, Md.). The PCR reaction using buffer reagents from the SuperScriptTM preamplification system (Life Technologies, Rockville, Md.) was quantitated with […] competitive primers (Ambion). Primers for the amplification of Ptc 1 were [NT] ID NO: 38) and [NT] ID NO: 39) which are based on ptc1 cDNA sequence (GenBank Accession Number U46155). All amplification for Ptc1 were done with 25 cycles of 94° C. for 30 sec; 55° C. for 1 min; 72° C. for 1 min. The cDNA from the same cells was also used as a template for VEGF, bFGF, Angiopoietin 1, and Angiopoietin II amplification. The following primer pairs and PCR cycles were used: […] [NT] ID NO: 40) and [NT] ID NO: 41) which are based on the human VEGF cDNA sequence (GenBank Accession Number E15157). VEGF product was amplified with 30 cycles of 94° C. for 30 sec; 62° C. for 1 min; 72° C. for 1 min; bFGF: [NT] ID NO: 42) and [NT] ID NO: 43) which is based on the human bFGF cDNA sequence (GenBank Accession Number M27968). bFGF product was amplified with 25 cycles of 94° C. for 30 sec; 62° C. for 1 min; 72° C. for 1 min; Angiopoietin I [NT] ID NO: 44) and [NT] ID NO: 45) which is based on human Angiopoietin I cDNA sequence (GenBank Accession Number U83508). Angiopoietin I product was amplified with 25 cycles of 94° C. for 30 sec; 64° C. for 90 sec; Angiopoietin II: [NT] ID NO:46) and [NT] ID NO: 47) which are based on human Angiopoietin II cDNA sequence (GenBank Accesion Number AB009865). Angiopoietin II product was amplified with 32 cycles of 94° C. for 30 sec; 64° C. for 90 sec. As internal control for sample preparation, gel loading, and random variations in RT-PCR, 18S rRNA primers and 18S rRNA competimers (Ambion, Austin, Tex.), used to modify 18S cDNA amplification efficiency, were included in each PCR reaction with target gene-specific primers. The linear range of amplification and optimal 18S primer/Competimer ratio was determined for each target gene following the manufacturer's recommendations (Ambion, Austin, Tex.). […] VEGF 121, 165, and 189 upregulation began at 12 hours and was maximal after 48 hours of incubation of the cells with Shh. […] Cells were stimulated with recombinant human myristolated Shh protein as described above. At harvest, the cell conditioned media was collected, centrifuged to remove cell debris (15 minutes at 1500×g) and production of VEGF165 protein was evaluated by using an ELISA kit (Quantikine human VEGF, R&D Systems, Minneapolis, Minn.).

mouse cornea = experiment: mouse corneal pocket model of angiogenesis; type: in vivo
Experimental: To confirm the angiogenic activity of hedgehog in another well accepted model of angiogenesis, we tested the ability of hedgehog protein to induce neovascularization in the mouse corneal model pocket model of angiogenesis.
Animals were anesthetized by pentobarbital intraperitoneal injection (160 mg/kg). Corneal pockets were created in the eyes of each mouse and a 0.34×0.34 mm sucrose albumin sulfate (Bukh Meditec, Vaerlose, DK) pellet coated with hydron polymer type NCC (Interferon Sciences, New Brunswick, N.J.) containing 1 of the agents indicated below was implanted into the corneal pocket. […] mice were divided into 5 groups: control buffer alone; VEGF 300 ng/pellet; Myr-Shh vehicle alone; Myr-Shh 1.5 microg/pellet […]; Myr-Shh+VEGF (1.5 microg/pellet +300 ng/pellet, respectively). Pellets were positioned 1.0 mm from the corneal limbus, and erythromycin ophthalmic ointment (E. Fourera) was applied to each operated eye. The corneas of all mice were routinely examined by slit-lamp biomicroscopy on postoperative day 6 after pellet implantation.
On the same day vessel length and corneal circumferential neovascularity (in degrees) were measured. After completing these measurements, C57BL/6J mice received an intravenous injection of […] of BS-1 lectin FITC-conjugated (Vector Laboratories, Burlingame, Calif.). Thirty minutes later, the animals were sacrificed. The eyes were enucleated and fixed in 1% paraformaldehyde solution. After fixation, the corneas were placed on glass slides and examined by fluorescence microscopy.
To determine the mechanism by which Shh induces angiogenesis both Shh and VEGF-stimulated corneas (see Example 3) were excised and X-gal stained as described in Example 1 after fixation of the whole eye for 1 hour in 1% paraformaldehyde followed by enucleation and fixation of the corneal hemisphere in 1% paraformaldehyde for 30 minutes. […] Endothelial cell immunostaining was done with a rat monoclonal antibody against mouse CD-31 (Pharmigen, San Diego, Calif.) followed by a biotinylated goat anti-rat immunoglobulin secondary antibody. Smooth muscle cells and pericytes were identified with a mouse monoclonal antibody against SM a-actin conjugated with alkaline-phosphatase (Sigma, St. Louis, Mo.) and fibroblasts were identified using an anti-vimentin antibody (Sigma, St. Louis, Mo.).
We then immunostained the Shh-induced corneas with a rabbit polyclonal anti-VEGF antibody (Santa Cruz Biotechnology, Santa Cruz, Calif.) with a biotinylated goat anti-rabbit immunoglobulin as secondary antibody.

[3] = test system: human umbilical vein and microvascular endothelial cells; experiment: response of endothelial cells to Hh; type: cell-based
[4] = test system: vascular smooth muscle cells (PAC 1), normal human lung fibroblasts, normal prostate stromal cells; experiment: ptc 1 RT-PCR in smooth muscle cells, lung fibroblasts and prostate stromal cells; type: cell-based; settings: 1 ug/ml for 2 days, vs vehicle
Experimental: Eighty five percent confluent monolayers of vascular smooth muscle cells (PAC 1) were induced for 2 days with 1 ug/ml of myrShh or an equivalent volume of vehicle in normal media (M 199 complete media with 10% fetal bovine serum). For comparison, primary normal human lung fibroblasts and normal prostate stromal cells were grown in complete FBM and similarly stimulated (Clonetics/Bio-Whittaker, Walkersville, Md.). The cells were harvested and RNA from the cells was prepared and analysed by RT-PCR as above. […] In addition, hedgehog protein induced DNA synthesis in quiescent vascular SMCs and human fibroblasts. PAC-1 (Rothman et al., 1992), WKY (Lemire et al., 1994), primary pulmonary artery SMCs or aortic SMCs (Clonetics/Bio-Whittaker, Walkersville, Md.) were plated (5×10^3/well) in 96 well plates and allowed to adhere for 2-3 hours in 0.18 ml of complete media (M 199 with 10% fetal bovine serum for PAC 1 cells, DMEM with 10% fetal bovine serum for WKY cells or smGM-2 for primary human pulmonary artery or aortic SMCs). The cells were then starved for 18-24 hours in complete media with 0.5% fetal bovine serum. […] 3H-thymidine uptake into cells was determined by scintillation counting using a 1205 Betaplate counter (Wallac, Gaithersburg, Md.).

[5] = pellet: Myr-Shh 1.5 microg or VEGF 300 ng

Molecule | β-galactosidase activity [1] | start of VEGF 121, 165 and 189 upregulation [2] | time of maximal VEGF 121, 165 and 189 upregulation [2] | time of maximal increase of Ang-1 and Ang-2 [2] | VEGF mRNA isoforms (VEGF121, 165, 189) ([2]; RT-PCR) | bFGF mRNA ([2]; any time-points) | VEGF production (VEGF165 protein in cell media, ELISA) ([2]; at 72 hours) | Ang-1 and Ang-2 mRNA ([2]; quantitative RT-PCR) | Ptc1 gene expression ([2]; time course) | X-gal staining (Ptc 1 expression) of corneas (mouse cornea; Ptc1-lacZ corneas) | VEGF immunostaining of corneas (mouse cornea; anti-VEGF antibody) | density of vessels (mouse cornea; compared with VEGF) | maximum vessel lengths (mouse cornea; [5]) | vessel diameters (mean) (mouse cornea; [5]) | neovascular growth (mouse cornea; pellet: Myr-Shh 1.5 microg or VEGF 300 ng, day 6) | vessel length, circumferential neovascularity and diameter of the lumens (mouse cornea; summary) | response to Hh [3] | ptc 1 expression [4]
C[C@H]1CC[C@]2(NC1)O[C@H]1C[C@H]3[C@@H]4CC[C@H]5C[C@@H](O)CC[C@]5(C)[C@H]4CC[C@]3(C)[C@H]1[C@@H]2C [tomatidine] | cannot be achieved |  |  |  |  |  |  |  |  |  |  |  |  |  |  |  |  | 
Myr-Shh: recombinant human myristolated Shh protein (myristylated Sonic hedgehog) |  | 12 h | 48 h | 36 h | strongly upregulated | No bFGF upregulation was detectable | significant upregulation | upregulation of both genes | upregulating the Ptc1 gene | strong X-gal staining | VEGF protein is in the fibroblasts and matrix immediately adjacent to the neovascular area | slightly lower | 1020+200 um | 33±17 um | significant neovascular growth | statistically significant increase | Neither human umbilical vein and microvascular endothelial cells respond | increased ptc 1 expression
